Measured values reported in paper PMC10889512, “Pyrimidine Schiff Bases: Synthesis, Structural Characterization and Recent Studies on Biological Activities” (International Journal of Molecular Sciences, 2024).

Legend:
E. faecalis 29212 = experiment: Antimicrobial activity assay, microdilution; assay type: cell-based, Enterococcus faecalis; conditions: concentration range from 0.5 µg/mL to 256 µg/mL
Experimental: (§1) In vitro antimicrobial and antifungal activity was screened using microdilution and modified Richard’s medium. The assay was performed for compounds 4a, 4b, 4c, and 4d with seven reference microbial strains from ATTC (E. coli 25922, S. aureus 43300, K. pneumoniae 700603, A. baumannii 19606, P. aeruginosa 27853, E. faecalis 29212, and C. albicans 10231).
(§2) Seven reference strains from the ATCC collection (Escherichia coli 25922, Staphylococcus aureus 43300, Klebsiella pneumoniae 13883, Acinetobacter baumannii 19606, Pseudomonas aeruginosa 27853, Enterococcus faecalis 29212, and Candida albicans 10231) were used. The assay was performed according to a modified version of Richard et al.’s protocol and ISO standards 20776-1:2019 and 16256:2021 [78, 79]. Microdilution with spectrophotometric measurement was used to calculate MIC50 (minimal inhibitory concentration which decreased the microorganisms’ viability to 50%) values. Briefly, compounds were prepared 100× concentrated in DMSO, and during the whole experiment, they were diluted to 1× with TSB. Serial dilutions of tested compounds were made directly on plates at a concentration range of 0.5 to 256 µg/mL. Microorganisms were incubated for 24 h at 37 °C (bacteria) or 25 °C (yeast) on Petri dishes with TSA. The bacteria/yeast suspensions were prepared at a density 5 × 10^5 CFU/mL (for bacteria) or 0.5–2.5 × 10^5 CFU/mL (for yeast) with TSB. Also, appropriate controls were contained in the experiment: the positive control consisted of a specific strain in TSB, and the negative control was TSB alone. To ensure that used strains were not modified and were still responding to antibacterial/antifungal compounds established by EUCAST, additional tests were conducted with levofloxacin, gentamicin, and amphotericin B. Microplates were incubated on a shaker for 24 h at 37 ± 1 °C or 25 ± 1 °C for the bacteria and yeast strains, respectively. After the incubation, spectrophotometric measurement was performed at 580 nm. MIC50 was calculated by comparing the results obtained for experimental sets with positive controls. Next, 50 µL aliquots of 1% (m/v) TTC solution were added to each well. The plates were incubated on the shaker for 24 h at 37/25 °C. In living microbial cells, colourless TTC is converted into red formazan crystals, which allows for visual observation and MBC/MFC (minimal bactericidal/fungicidal concentration) value assessment.

A. baumannii 19606 = experiment: Antimicrobial activity assay, microdilution; assay type: cell-based, Acinetobacter baumannii; conditions: concentration range from 0.5 µg/mL to 256 µg/mL
Experimental: as §1, §2

HeLa = experiment: Neutral red uptake assay on HeLa; assay type: cell-based; conditions: Homo sapiens, 72 h treatment
Experimental: (§3) Based on the results obtained for the RPTEC cell line, the following concentrations of 4b–d were chosen to be applied to neoplastic cell lines: 0.1, 1, 10, 25, 50, and 100 µM. A172, AGS, CaCo-2, HeLa, and HepG2 cancer cell lines were used to perform a neutral red uptake assay. The obtained results were compared with a negative control (cell lines incubated without tested compounds), and half-maximal inhibitory concentration (IC50) values were calculated. Cell lines were plated in 96-well plates at a density of 1 × 10^4 cells/well. After 24 h incubation, which allowed the cells to attach and start to proliferate, the culture media were replaced with 4a–d dissolved in the appropriate medium at concentrations of 1, 10, 50, 100, 150 and 200 µM. […] Negative (1% DMSO in medium) and positive (1 µM staurosporine) controls were also included. Plates were incubated at 37 °C for 24, 48, and 72 h before the neutral red uptake assay. The neutral red uptake assay was performed as described by Repetto et al.. Briefly, the medium from all wells was discarded, the attached cells were washed with 100 µL PBS, and then 100 µL of neutral red working solution in medium (40 µg/mL) was added to each well. The neutral red solution was incubated overnight in the same conditions as the cells and centrifuged before being added to the cells. The plates were incubated for at least 2 h at 37 °C, 5% CO2, in a humidified atmosphere. Next, the neutral red medium was removed, and the cells were washed with 100 µL PBS. A 100 µL quantity of destain solution consisting of 50% ethanol, 1% glacial acetic acid, and deionized water was added to each well. Plates were incubated for 30 min with constant shaking on a horizontal shaker at 37 °C. Absorption was measured at 540 nm excitation. The cells’ viability was calculated by comparing results from experimental sets with negative controls according to the formula: % viability=ODtest substance−ODblind/ODnegative control−ODblind×100

A172 = experiment: Microscopic observations, Hoechst 33342 stain, A172; assay type: cell-based, human; conditions: A172, at IC50, 24, 48 and 72 h
Experimental: In order to obtain information about cells and nuclei morphology, fluorescence microscopy was used. Briefly, after the incubation of A172 and AGS with compound 4b (at three time periods, namely 24, 48, and 72 h) cells were stained with Hoechst 33342 dye, which binds to DNA. Phase-contrast observations were also performed. […] Also, the cell membrane should be intact with a visible halo around the cells. In necrotic cells, the nuclei edges tend to be less clearly defined, and Hoechst 33342 results in a decreased fluorescence signal. This effect can be seen in a1,2 (A172) and b1,2 (AGS). […] To visualize morphological changes which occurred in the treated cells, microscopic observations were conducted using Hoechst 33342 stain. It is a blue fluorescent stain which allows observations of nuclei in eukaryotic cells. Also observations in bright fields were performed. Cells were stained according to the manufacturer’s protocol. Briefly, cells were plated in 12-well plates at a density of 1 × 10^5 cells/well and were incubated for 24 h at 37 °C, 5% CO2 in a humidified atmosphere. Next, cells were treated with 4b at an IC50 and further incubated for 24, 48, and 72 h. For microscopic observations cells were collected, washed with PBS and stained for 15 min with 1 µg/mL Hoechst 33342 dye. […]

P. aeruginosa 27853 = experiment: Antimicrobial activity assay, microdilution; assay type: cell-based, Pseudomonas aeruginosa; conditions: concentration range from 0.5 µg/mL to 256 µg/mL
Experimental: as §1, §2

HepG2 = experiment: Neutral red uptake assay on HepG2; assay type: cell-based; conditions: Homo sapiens; HepG2, 72 h treatment
Experimental: as §3

S. aureus 43300 = experiment: Antimicrobial activity assay, microdilution; assay type: cell-based, Staphylococcus aureus; conditions: concentration range from 0.5 µg/mL to 256 µg/mL
Experimental: as §1, §2

IC50 (HeLa): > 100 µM
IC50 (HepG2): > 100 µM
SMILES: Cc1nc(-c2ccccc2)nc(Nc2ccc(F)cc2)c1C=Nc1cccc(Cl)c1 [compound 4b, 5-{[(3-chlorophenyl)imino]methyl}-N-(4-fluorophenyl)-6-methyl-2-phenylpyrimidin-4-amine]
MIC and MBC/MFC activity (E. faecalis 29212): Neither MIC nor MBC/MFC activity was observed
MIC and MBC/MFC activity (A. baumannii 19606): Neither MIC nor MBC/MFC activity was observed
cell and nuclei morphology (A172): leads to necrosis
MIC and MBC/MFC activity (P. aeruginosa 27853): Neither MIC nor MBC/MFC activity was observed
MIC and MBC/MFC activity (S. aureus 43300): Neither MIC nor MBC/MFC activity was observed
